ChEMBL document CHEMBL4420075, “Seriniquinones, melanoma-specific anticancer agents” (2016)

Tests used:
Assay type in all cases: functional
[1] = test system: A549; experiment: Growth inhibition of human A549/ATCC cells assessed as cell growth incubated for 48 hrs by sulforhodamine B assay; parameters: concentration or dose not given beside the values
[2] = test system: MOLT-4; experiment: Growth inhibition of human MOLT4 cells assessed as cell growth incubated for 48 hrs by sulforhodamine B assay; parameters: concentration or dose not given beside the values
[3] = test system: KM12; experiment: Growth inhibition of human KM12 cells assessed as cell growth incubated for 48 hrs by sulforhodamine B assay; parameters: concentration or dose not given beside the values
[4] = test system: UACC-257; experiment: Growth inhibition of human UACC257 cells assessed as cell growth incubated for 48 hrs by sulforhodamine B assay; parameters: concentration or dose not given beside the values
[5] = test system: SK-MEL-28; experiment: Growth inhibition of human SK-MEL-28 cells assessed as cell growth incubated for 48 hrs by sulforhodamine B assay; parameters: concentration or dose not given beside the values
[6] = test system: SF-295; experiment: Growth inhibition of human SF295 cells assessed as cell growth incubated for 48 hrs by sulforhodamine B assay; parameters: concentration or dose not given beside the values
[7] = test system: OVCAR-8; experiment: Growth inhibition of human OVCAR8 cells assessed as cell growth incubated for 48 hrs by sulforhodamine B assay; parameters: concentration or dose not given beside the values
[8] = test system: HL-60(TB); experiment: Growth inhibition of human HL-60(TB) cells assessed as cell growth incubated for 48 hrs by sulforhodamine B assay; parameters: concentration or dose not given beside the values
[9] = test system: NCI-H522; experiment: Growth inhibition of human NCI-H522 cells assessed as cell growth incubated for 48 hrs by sulforhodamine B assay; parameters: concentration or dose not given beside the values
[10] = test system: CCRF-CEM; experiment: Growth inhibition of human CCRF-CEM cells assessed as cell growth incubated for 48 hrs by sulforhodamine B assay; parameters: concentration or dose not given beside the values
[11] = test system: SK-MEL-2; experiment: Growth inhibition of human SK-MEL-2 cells assessed as cell growth incubated for 48 hrs by sulforhodamine B assay; parameters: concentration or dose not given beside the values
[12] = test system: OVCAR-3; experiment: Growth inhibition of human OVCAR3 cells assessed as cell growth incubated for 48 hrs by sulforhodamine B assay; parameters: concentration or dose not given beside the values
[13] = test system: UO-31; experiment: Growth inhibition of human UO31 cells assessed as cell growth incubated for 48 hrs by sulforhodamine B assay; parameters: concentration or dose not given beside the values
[14] = test system: NCI/ADR-RES; experiment: Growth inhibition of human NCI/ADR-RES cells assessed as cell growth incubated for 48 hrs by sulforhodamine B assay; parameters: concentration or dose not given beside the values
[15] = test system: MDA-MB-231; experiment: Growth inhibition of human MDA-MB-231 cells assessed as cell growth incubated for 48 hrs by sulforhodamine B assay; parameters: concentration or dose not given beside the values
[16] = test system: BT-549; experiment: Growth inhibition of human BT549 cells assessed as cell growth incubated for 48 hrs by sulforhodamine B assay; parameters: concentration or dose not given beside the values
[17] = test system: SR; experiment: Growth inhibition of human SR cells assessed as cell growth incubated for 48 hrs by sulforhodamine B assay; parameters: concentration or dose not given beside the values
[18] = test system: Hs-578T; experiment: Growth inhibition of human Hs 578T cells assessed as cell growth incubated for 48 hrs by sulforhodamine B assay; parameters: concentration or dose not given beside the values
[19] = test system: MDA-MB-435; experiment: Growth inhibition of human MDA-MB-435 cells assessed as cell growth incubated for 48 hrs by sulforhodamine B assay; parameters: concentration or dose not given beside the values
[20] = test system: 786-0; experiment: Growth inhibition of human 786-0 cells assessed as cell growth incubated for 48 hrs by sulforhodamine B assay; parameters: concentration or dose not given beside the values
[21] = test system: SK-OV-3; experiment: Growth inhibition of human SKOV3 cells assessed as cell growth incubated for 48 hrs by sulforhodamine B assay; parameters: concentration or dose not given beside the values
[22] = test system: CAKI-1; experiment: Growth inhibition of human Caki1 cells assessed as cell growth incubated for 48 hrs by sulforhodamine B assay; parameters: concentration or dose not given beside the values
[23] = test system: HCC 2998; experiment: Growth inhibition of human HCC2998 cells assessed as cell growth incubated for 48 hrs by sulforhodamine B assay; parameters: concentration or dose not given beside the values
[24] = test system: LOX IMVI; experiment: Growth inhibition of human LOXIMVI cells assessed as cell growth incubated for 48 hrs by sulforhodamine B assay; parameters: concentration or dose not given beside the values
[25] = test system: NCI-H23; experiment: Growth inhibition of human NCI-H23 cells assessed as cell growth incubated for 48 hrs by sulforhodamine B assay; parameters: concentration or dose not given beside the values
[26] = test system: OVCAR-4; experiment: Growth inhibition of human OVCAR4 cells assessed as cell growth incubated for 48 hrs by sulforhodamine B assay; parameters: concentration or dose not given beside the values
[27] = test system: MCF7; experiment: Growth inhibition of human MCF7 cells assessed as cell growth incubated for 48 hrs by sulforhodamine B assay; parameters: concentration or dose not given beside the values
[28] = test system: UACC-62; experiment: Growth inhibition of human UACC62 cells assessed as cell growth incubated for 48 hrs by sulforhodamine B assay; parameters: concentration or dose not given beside the values
[29] = test system: IGROV-1; experiment: Growth inhibition of human IGROV1 cells assessed as cell growth incubated for 48 hrs by sulforhodamine B assay; parameters: scale not given: the % may be the effect or the level left
[30] = test system: Malme-3M; experiment: Growth inhibition of human MALME-3M cells assessed as cell growth incubated for 48 hrs by sulforhodamine B assay; parameters: scale not given: the % may be the effect or the level left
[31] = test system: RPMI-8226; experiment: Growth inhibition of human RPMI8226 cells assessed as cell growth incubated for 48 hrs by sulforhodamine B assay; parameters: concentration or dose not given beside the values
[32] = test system: NCI-H322M; experiment: Growth inhibition of human NCI-H322M cells assessed as cell growth incubated for 48 hrs by sulforhodamine B assay; parameters: scale not given: the % may be the effect or the level left
[33] = test system: COLO 205; experiment: Growth inhibition of human COLO205 cells assessed as cell growth incubated for 48 hrs by sulforhodamine B assay; parameters: concentration or dose not given beside the values
[34] = test system: SW-620; experiment: Growth inhibition of human SW620 cells assessed as cell growth incubated for 48 hrs by sulforhodamine B assay; parameters: concentration or dose not given beside the values
[35] = test system: RXF 393; experiment: Growth inhibition of human RXF393 cells assessed as cell growth incubated for 48 hrs by sulforhodamine B assay; parameters: concentration or dose not given beside the values
[36] = test system: NCI-H226; experiment: Growth inhibition of human NCI-H226 cells assessed as cell growth incubated for 48 hrs by sulforhodamine B assay; parameters: concentration or dose not given beside the values
[37] = test system: SN12C; experiment: Growth inhibition of human SN12C cells assessed as cell growth incubated for 48 hrs by sulforhodamine B assay; parameters: concentration or dose not given beside the values
[38] = test system: HOP-62; experiment: Growth inhibition of human HOP62 cells assessed as cell growth incubated for 48 hrs by sulforhodamine B assay; parameters: concentration or dose not given beside the values
[39] = test system: MDA-MB-468; experiment: Growth inhibition of human MDA-MB-468 cells assessed as cell growth incubated for 48 hrs by sulforhodamine B assay; parameters: concentration or dose not given beside the values
[40] = test system: A498; experiment: Growth inhibition of human A498 cells assessed as cell growth incubated for 48 hrs by sulforhodamine B assay; parameters: concentration or dose not given beside the values
[41] = test system: SF-268; experiment: Growth inhibition of human SF268 cells assessed as cell growth incubated for 48 hrs by sulforhodamine B assay; parameters: concentration or dose not given beside the values
[42] = test system: PC-3; experiment: Growth inhibition of human PC3 cells assessed as cell growth incubated for 48 hrs by sulforhodamine B assay; parameters: concentration or dose not given beside the values
[43] = test system: SNB-75; experiment: Growth inhibition of human SNB75 cells assessed as cell growth incubated for 48 hrs by sulforhodamine B assay; parameters: concentration or dose not given beside the values
[44] = test system: SK-MEL-5; experiment: Growth inhibition of human SK-MEL-5 cells assessed as cell growth incubated for 48 hrs by sulforhodamine B assay; parameters: concentration or dose not given beside the values
[45] = test system: NCI-H460; experiment: Growth inhibition of human NCI-H460 cells assessed as cell growth incubated for 48 hrs by sulforhodamine B assay; parameters: concentration or dose not given beside the values
[46] = test system: T47D; experiment: Growth inhibition of human T47D cells assessed as cell growth incubated for 48 hrs by sulforhodamine B assay; parameters: concentration or dose not given beside the values
[47] = test system: SNB-19; experiment: Growth inhibition of human SNB19 cells assessed as cell growth incubated for 48 hrs by sulforhodamine B assay; parameters: concentration or dose not given beside the values
[48] = test system: U-251; experiment: Growth inhibition of human U251 cells assessed as cell growth incubated for 48 hrs by sulforhodamine B assay; parameters: concentration or dose not given beside the values
[49] = test system: TK-10; experiment: Growth inhibition of human TK10 cells assessed as cell growth incubated for 48 hrs by sulforhodamine B assay; parameters: concentration or dose not given beside the values
[50] = test system: M14; experiment: Growth inhibition of human M14 cells assessed as cell growth incubated for 48 hrs by sulforhodamine B assay; parameters: concentration or dose not given beside the values
[51] = test system: DU-145; experiment: Growth inhibition of human DU145 cells assessed as cell growth incubated for 48 hrs by sulforhodamine B assay; parameters: concentration or dose not given beside the values
[52] = test system: HOP-92; experiment: Growth inhibition of human HOP92 cells assessed as cell growth incubated for 48 hrs by sulforhodamine B assay; parameters: concentration or dose not given beside the values
[53] = test system: HCT-116; experiment: Growth inhibition of human HCT116 cells assessed as cell growth incubated for 48 hrs by sulforhodamine B assay; parameters: concentration or dose not given beside the values
[54] = test system: HT-29; experiment: Growth inhibition of human HT-29 cells assessed as cell growth incubated for 48 hrs by sulforhodamine B assay; parameters: concentration or dose not given beside the values
[55] = test system: K562; experiment: Growth inhibition of human K562 cells assessed as cell growth incubated for 48 hrs by sulforhodamine B assay; parameters: concentration or dose not given beside the values

CC(C)(C)OC(=O)NCC1CN(C(=O)CCc2ccc3c(=O)c4sc5c(=O)c6ccccc6c(=O)c5c4c(=O)c3c2)C1
Activity [1]: -66.1%
Activity [2]: -47.44%
Activity [3]: -27.78%
Activity [4]: -95.5%
Activity [5]: -21.85%
Activity [6]: -95.8%
Activity [7]: -55.88%
Activity [8]: -44.47%
Activity [9]: -42.91%
Activity [10]: -45.34%
Activity [11]: -50.15%
Activity [12]: -33.51%
Activity [13]: -81.64%
Activity [14]: -12.16%
Activity [15]: -12.92%
Activity [16]: -94.11%
Activity [17]: -5.83%
Activity [18]: -20.36%
Activity [19]: -97.59%
Activity [20]: -48.69%
Activity [21]: -34.85%
Activity [22]: 0.12%
Activity [23]: -90.99%
Activity [24]: -69.24%
Activity [25]: -39.91%
Activity [26]: -90.58%
Activity [27]: -63.33%
Activity [28]: -68.32%
Activity [29]: -62.41%
Activity [30]: -88.84%
Activity [31]: -36.74%
Activity [32]: -94.65%
Activity [33]: -97.62%
Activity [34]: -23.01%
Activity [35]: -48.97%
Activity [36]: -51.46%
Activity [37]: -79.71%
Activity [38]: -74.88%
Activity [39]: -50.83%
Activity [40]: 35.61%
Activity [41]: -39.06%
Activity [42]: 4.68%
Activity [43]: -83.64%
Activity [44]: -99.11%
Activity [45]: -45.51%
Activity [46]: -33.26%
Activity [47]: -4.23%
Activity [48]: -70.04%
Activity [49]: -8.18%
Activity [50]: -97.99%
Activity [51]: -95.53%
Activity [52]: -14.16%
Activity [53]: -89.29%
Activity [54]: -57.09%
Activity [55]: -13.04%
